From patent US8044200B2, “Synthesis and purification of pteroic acid and conjugates thereof” (Endocyte, Inc., priority 2005, dated 2011)

Tested on: M109 cells
Assay: Effect of isolated folate-fluorescein conjugates on growth of solid tumors (subcutaneous M109 tumors in fluorescein-immunized mice)
Assay type: in vivo
Conditions: female Balb/c mice preimmunized with KLH-fluorescein; s.c. M109 tumor; 500, 2000 or 5000 nmol/kg i.p., days 1-19; in combination with IL-2 and IFN-α; versus PBS control; FIG. 2
Procedure: Six to eight-week old (˜20-22 grams) female Balb/c mice (8 mice/group) were immunized subcutaneously at multiple sites with fluorescein-labeled keyhole limpet hemocyanin (KLH) using a commercial saponin adjuvant (GPI-0100; Galenica). After assuring that anti-fluorescein antibody titers were high in all mice (as evidenced by the results of ELISA assays of serum samples of the mice), each animal was injected subcutaneously in the shoulder with 1×10^6 M109 cells (a syngeneic lung cancer cell line that expresses high levels of the folate receptor; day 0) following prior immunization with KLH-fluorescein. The immunizations with folate-fluorescein after tumor cell implantation consisted of 500, 2000, or 5000 nmol/kg of folate-fluorescein, conjugated via a gamma carboxyl-linked ethylene diamine bridge, given in 19 intraperitoneal doses at 24 hour intervals (days 1-19). Control animals were injected with phosphate buffered saline (PBS). A series of 5 daily injections (five times a week) for three weeks of 20,000 IU/day of recombinant human IL-2 were administered to all mice in order to stimulate the immune system. A series of 3 injections for three weeks of 25,000 U/day of recombinant human IFN-α were also administered to all mice. The efficacy of this immunotherapy was then evaluated by monitoring tumor volume (mm^3) using a caliper.

Question: For Nc1nc2ncc(CNc3ccc(C(=O)NC(CCC(=O)NCCNC(=S)Nc4ccc5c(c4)C(=O)OC54c5ccc(O)cc5Oc5cc(O)ccc54)C(=O)O)cc3)nc2c(=O)[nH]1 (stereo not shown) [folate-fluorescein], which “growth of solid tumors (tumor volume)” value is on record?
Answer: significantly inhibited
